Data taken from patent publication US20120220603A1, “SUBSTITUTED HETEROCYCLIC DERIVATIVES FOR THE TREATMENT OF PAIN AND EPILEPSY” (ZALICUS PHARMACEUTICALS LTD., priority 2009, published 2012).

Assays:
[1] = tested on: Rat SNL tactile allodynia; test: L5/L6 spinal nerve ligation (SNL) Chung pain model, tactile allodynia (von Frey); format: in vivo
Text: The Spinal Nerve Ligation is an animal model representing peripheral nerve injury generating a neuropathic pain syndrome. In this model experimental animals develop the clinical symptoms of tactile allodynia and hyperalgesia. L5/L6 Spinal nerve ligation (SNL) injury was induced using the procedure of Kim and Chung (Kim et al., Pain 50:355-363 (1992)) in male Sprague-Dawley rats (Harlan; Indianapolis, Ind.) weighing 200 to 250 grams.
Anaesthesia was induced with 2% isofluorane in O2 at 2 L/min and maintained with 0.5% isofluorane in O2. Rats were then shaved and aseptically prepared for surgeries. A 2 cm paraspinal incision was made at the level of L4-S2. L4/L5 was exposed by removing the transverse process above the nerves with a small rongeur. The L5 spinal nerve is the larger of the two visible nerves below the transverse process and lies closest to the spine. The L6 spinal nerve is located beneath the corner of the slope bone. A home-made glass Chung rod was used to hook L5 or L6 and a pre-made slip knot of 4.0 silk suture was placed on the tip of the rod just above the nerve and pulled underneath to allow for the tight ligation. The L5 and L6 spinal nerves were tightly ligated distal to the dorsal root ganglion. The incision was closed, and the animals were allowed to recover for 5 days.
Sham control rats underwent the same operation and handling as the experimental animals, but without SNL.
Prior to initiating drug delivery, baseline behavioural testing data is obtained. At selected times after infusion of the Test or Control Article behavioural data can then be collected again.
The assessment of tactile allodynia consisted of measuring the withdrawal threshold of the paw ipsilateral to the site of nerve injury in response to probing with a series of calibrated von Frey filaments (innocuous stimuli). Animals were acclimated to the suspended wire-mesh cages for 30 min before testing. Each von Frey filament was applied perpendicularly to the plantar surface of the ligated paw of rats for 5 sec. A positive response was indicated by a sharp withdrawal of the paw. For rats, the first testing filament is 4.31. Measurements were taken before and after administration of test articles. […] The protocol was repeated until three changes in behaviour were determined (“up and down” method) (Chaplan et al., J. Neurosci. Methods 53:55-63 (1994)). The 50% paw withdrawal threshold was determined as (10^[Xf+kδ])/10,000, where Xf=the value of the last von Frey filament employed, k=Dixon value for the positive/negative pattern, and S=the logarithmic difference between stimuli. The cut-off values for rats were no less than 0.2 g and no higher than 15 g (5.18 filament); for mice no less than 0.03 g and no higher than 2.34 g (4.56 filament). A significant drop of the paw withdrawal threshold compared to the pre-treatment baseline is considered tactile allodynia. […]

[2] = Mouse rotarod assay (minimal muscular or neurological impairment); format: in vivo; conditions: mouse, in vivo, mice
Procedure: To assess a compound's undesirable side effects (toxicity), animals were monitored for overt signs of impaired neurological or muscular function. In mice, the rotarod procedure (Dunham and Miya, J. Am. Pharmacol. Assoc. 46:208-209 (1957)) is used to disclose minimal muscular or neurological impairment (MMI). When a mouse is placed on a rod that rotates at a speed of 6 rpm, the animal can maintain its equilibrium for long periods of time. The animal is considered toxic if it falls off this rotating rod three times during a 1-min period.

[3] = biological target: T1, CaV3.2 T-type Ca2+ channels expressed in HEK cells (Homo sapiens, UniProt O95180); test: CaV3.2 voltage-clamp electrophysiological assay (fast and slow inactivation); format: cell-based
T1 construct: expressed in transfected cells; host or cells: HEK cells
T1 sequence (O95180 whole entry): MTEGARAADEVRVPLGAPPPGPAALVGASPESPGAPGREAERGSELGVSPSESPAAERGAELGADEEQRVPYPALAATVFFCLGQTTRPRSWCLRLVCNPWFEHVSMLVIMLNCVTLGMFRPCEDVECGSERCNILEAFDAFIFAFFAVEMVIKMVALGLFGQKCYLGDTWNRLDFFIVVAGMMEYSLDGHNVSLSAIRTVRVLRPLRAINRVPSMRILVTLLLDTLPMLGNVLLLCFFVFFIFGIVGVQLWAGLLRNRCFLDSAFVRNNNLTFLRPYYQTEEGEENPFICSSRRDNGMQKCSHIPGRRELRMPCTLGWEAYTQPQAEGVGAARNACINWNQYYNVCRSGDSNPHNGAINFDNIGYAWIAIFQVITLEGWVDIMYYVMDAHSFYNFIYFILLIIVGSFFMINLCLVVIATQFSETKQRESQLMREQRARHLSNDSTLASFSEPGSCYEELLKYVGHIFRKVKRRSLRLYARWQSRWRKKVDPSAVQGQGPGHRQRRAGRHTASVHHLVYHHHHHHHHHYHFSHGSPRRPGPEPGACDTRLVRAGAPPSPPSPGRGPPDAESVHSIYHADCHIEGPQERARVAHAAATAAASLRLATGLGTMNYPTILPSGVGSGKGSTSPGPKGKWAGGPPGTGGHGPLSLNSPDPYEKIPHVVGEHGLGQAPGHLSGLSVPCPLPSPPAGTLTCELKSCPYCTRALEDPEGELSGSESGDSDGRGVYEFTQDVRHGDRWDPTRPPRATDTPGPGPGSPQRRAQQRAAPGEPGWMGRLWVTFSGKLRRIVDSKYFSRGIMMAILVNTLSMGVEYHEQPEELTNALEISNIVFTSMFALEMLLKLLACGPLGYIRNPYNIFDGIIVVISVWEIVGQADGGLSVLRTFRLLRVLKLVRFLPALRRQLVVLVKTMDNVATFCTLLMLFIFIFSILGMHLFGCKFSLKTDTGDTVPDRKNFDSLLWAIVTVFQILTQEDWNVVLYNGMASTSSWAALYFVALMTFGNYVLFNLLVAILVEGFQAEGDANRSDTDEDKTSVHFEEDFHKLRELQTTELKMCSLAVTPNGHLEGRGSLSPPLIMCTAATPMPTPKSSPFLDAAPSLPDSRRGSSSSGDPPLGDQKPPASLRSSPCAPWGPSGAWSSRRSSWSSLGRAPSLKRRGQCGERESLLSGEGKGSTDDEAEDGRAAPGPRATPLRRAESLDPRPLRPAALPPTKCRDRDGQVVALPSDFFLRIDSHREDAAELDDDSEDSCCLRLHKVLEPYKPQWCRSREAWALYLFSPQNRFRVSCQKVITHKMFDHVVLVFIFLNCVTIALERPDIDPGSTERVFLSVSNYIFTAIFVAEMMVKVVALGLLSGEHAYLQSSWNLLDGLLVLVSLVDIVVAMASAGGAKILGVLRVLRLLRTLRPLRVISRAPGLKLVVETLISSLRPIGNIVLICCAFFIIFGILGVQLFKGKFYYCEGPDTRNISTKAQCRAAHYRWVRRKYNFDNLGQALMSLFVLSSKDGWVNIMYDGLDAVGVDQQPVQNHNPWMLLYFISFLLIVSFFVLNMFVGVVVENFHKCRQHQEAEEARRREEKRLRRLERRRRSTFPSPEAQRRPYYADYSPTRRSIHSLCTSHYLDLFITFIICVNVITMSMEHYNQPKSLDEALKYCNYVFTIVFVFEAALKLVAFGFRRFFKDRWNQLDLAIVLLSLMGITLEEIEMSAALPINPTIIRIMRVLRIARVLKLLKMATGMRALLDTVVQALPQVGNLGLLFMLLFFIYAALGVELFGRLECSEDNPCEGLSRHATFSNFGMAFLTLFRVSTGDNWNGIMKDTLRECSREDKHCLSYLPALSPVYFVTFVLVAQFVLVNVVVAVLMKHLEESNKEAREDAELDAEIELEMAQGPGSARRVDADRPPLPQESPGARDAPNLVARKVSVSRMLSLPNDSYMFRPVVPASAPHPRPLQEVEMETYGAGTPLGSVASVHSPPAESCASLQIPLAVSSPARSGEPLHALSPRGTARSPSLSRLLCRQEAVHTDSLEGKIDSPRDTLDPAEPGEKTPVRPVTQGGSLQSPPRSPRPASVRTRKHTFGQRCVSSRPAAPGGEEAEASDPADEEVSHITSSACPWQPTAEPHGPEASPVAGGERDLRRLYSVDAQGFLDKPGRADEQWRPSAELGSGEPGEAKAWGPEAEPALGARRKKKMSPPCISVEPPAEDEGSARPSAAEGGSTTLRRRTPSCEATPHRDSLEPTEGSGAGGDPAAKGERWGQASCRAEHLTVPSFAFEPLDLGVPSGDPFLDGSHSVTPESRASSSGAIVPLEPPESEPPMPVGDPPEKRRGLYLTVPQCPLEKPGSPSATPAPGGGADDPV
Text: Prior to recording currents from CaV3.2 T-type Ca^2+ channels expressed in HEK cells, the culture media was replaced with extracellular solution (ECS) containing (in mM): 142 CsCl, 10 D-glucose, 2 CaCl2, 1 MgCl2, 10 HEPES, pH adjusted to 7.4 with CsOH. Borosilicate glass patch pipettes, pulled on a P-97 micropipette puller (Sutter Instruments, Novato, Calif.) with typical resistances of 2-4 MW, were backfilled with intracellular solution containing (in mM): 126.5 Cs-methanesulphonate, 2 MgCl2, 10 HEPES, 11 EGTA, 2 Na-ATP, pH adjusted to 7.3 CsOH. […] were recorded in the whole-cell configuration at room temperature (˜21° C.) using an Axopatch 200B (Molecular Devices, Sunnyvale, Calif.) patch-clamp amplifier. Recordings were low-pass filtered at 1 kHz (−3 dB 4-pole Bessel filter), digitized at 2 kHz with a Digidata 1322A interface (Molecular Devices), and acquired using pClamp 9.2 (Molecular Devices). No leak subtraction was used. Test compounds, prepared as 30 mM stock solutions in DMSO and diluted in extracellular buffer, were applied through a gravity driven multi-barrelled array of capillaries (24 gauge) connected to reservoirs controlled by solenoid valves. The effects of compounds on CaV3.2 slow and fast inactivation were evaluated using four different voltage protocols. The voltage dependence of fast and slow channel inactivation was examined using a two pulse protocol. Data were analyzed and fitted using OriginPro v.7.5 (OriginLab, Northampton, Mass.) software.

Which results are given for `O=C(CN1CCNCC1=O)Nc1cc(C(F)(F)F)cc(C(F)(F)F)c1` [Compound 1, N-(3,5-bis(trifluoromethyl)phenyl)-2-(2-oxopiperazin-1-yl)acetamide]?
Rat SNL Tactile Allodynia (% Antiallodynia) ([1]; 1 hour): 52%; Rat SNL Tactile Allodynia (% Antiallodynia) ([1]; 2 hours): 55%; Rat SNL Tactile Allodynia (% Antiallodynia) ([1]; 4 hours): 37%; TD50 [2]: 300 mg/kg

What does the source list for `O=C1CN(CC(=O)Nc2cc(C(F)(F)F)cc(C(F)(F)F)c2)CCN1` [Compound 9, N-(3,5-bis(trifluoromethyl)phenyl)-2-(3-oxopiperazin-1-yl)acetamide]?
Rat SNL Tactile Allodynia (% Antiallodynia) ([1]; 1 hour): 36%; Anti-allodynia in rat SNL tactile allodynia (in words) ([1]; at 60 minutes compared to baseline and post-SNL): significant anti-allodynia; Fraction of current recovered at 5.1 s interval ([3]; 5.1 s interval): *0.80; Fraction current remaining at −40 mV ([3]; at −40 mV): **0.32; V1/2 slow inactivation ([3]; voltage-dependence of half inactivation, HEK cells, whole-cell): **−83 mV
